How the values were obtained:
dog papillary muscle = test: cross-circulated preparation of isolated dog papillary muscle; conditions: Canis lupus familiaris, read-out: Contractile force of dog papillary muscle Increasing rate (%); for activation at 0.03 mg: Dosage 30 µg i.a.; for activation at 0.1 mg: Dosage 100 µg i.a.
Experimental: 1) Method of using cross-circulated preparation of isolated dog papillary muscle
Cross-circulated preparations of isolated dog papillary muscle were prepared according to the method of Endoh & Hashimoto, American J. Physiol., vol. 218, p.1459-1463, 1970, United States. The compound dissolved in solvent was injected to the artery close to the preparation, and the action of the compound on the contractile force of papillary muscle was determined.

guinea pig left atrium = test: isolated guinea pig left atrium, isometric contraction in organ bath; conditions: Cavia porcellus, read-out: Contractile foece of guinea pig left atrium Increase rate (%); for activation at 30 µg/mL: Dosage 3x10^-5 g/ml; for activation at 10 µg/mL: Dosage 10^-5 g/ml
Experimental: 2) Method of using isolated guinea pig left atrium
Male guinea pigs weighing 200 - 300 g were killed by hitting their back of the heat and their left atria were immediately isolated. The left atrium was fixed to the bottom of an organ bath filled with 30 ml of Klebs-Henseleit's solution maintained at 35 °C. A mixed gas comprising 95 % of 02 and 5 % of C02 was passed through the Klebs-Henseleit's solution in the organ bath. The auricle of the left atrium was connected to a transducer with a thread to measure the isometric contraction. The atrium was applied with 0.5 g of resting tension. The atrium was electrically driven by square wave of 1 millisecond duration at a voltage of the order of 1.5 times of the threshold voltage and at a rate of twice per second by means of two platinum electrodes. The preparation was stabilized for 30 minutes, then the compound dissolved in solvent was added to the organ bath, and the reaction was determined.

anesthetized dog = test: anesthetized dog, cardiac contractility and cardiac output; format: in vivo; conditions: for Co Increasing rate (%): blood flow rate in the aorta as index of cardiac output; for Cont Increasing rate (%): contractile force of the right cardiac ventricle muscle
Experimental: 3) Method of using anesthetized dog
Male or female mongrel dogs weighing 8 - 15 kg were used. The dogs were anesthetized with sodium pentobarbital at the dose of 30 mg/kg (intravenous injection) and then applied with artificial respiration. They were thoracotomised at the intercostal portion between forth and fifith costa, and the fifth costa was excised. Then the pericardium was cut to expose the heart. A probe of an electromagnetic flow meter was attached to the aorta to measure the blood flow rate in the aorta, which was used as an approximate index of the cardiac output (CO). A polyethylene cannula was inserted into the left cardiac ventricle to measure the intraventricular pressure, thereby the variation rate of the intraventricular pressure of the left cardiac ventricle (dp/dt) was electrically determined. A strain gauge was attached to the wall of the right cardiac ventricle to measure the contractile force of the right cardiac ventricle muscle (Cont). The systemic blood pressure was measured at the left femoral artery. The heart rate was measured by means- of a cardiotachometer. The compound dissolved in solvent was applied intravenously from the left femoral vein.

Structure (SMILES)	activation at 0.03 mg (dog papillary muscle)	activation at 0.1 mg (dog papillary muscle)	activation at 30 µg/mL (guinea pig left atrium)	activation at 10 µg/mL (guinea pig left atrium)	dp/dtmax Increasing rate (%) (anesthetized dog; Dosage 30 µg/kg i.v.)	Co Increasing rate (%) (anesthetized dog; Dosage 30 µg/kg i.v.)	Cont Increasing rate (%) (anesthetized dog; Dosage 30 µg/kg i.v.)	dp/dtmax Increasing rate (%) (anesthetized dog; Dosage 100 µg/kg i.v.)	Co Increasing rate (%) (anesthetized dog; Dosage 100 µg/kg i.v.)	Cont Increasing rate (%) (anesthetized dog; Dosage 100 µg/kg i.v.)
COc1cc(C2=NNC(=O)CC2)ccc1OCC(=O)N1CCN(Cc2ccc(OC)c(OC)c2OC)CC1 [Compound of Example 1]	10%	20.1%	44.8%	35.5%	12.9%	5.5%	7.9%	27.1%	13.3%	21.5%
COc1ccc(CN2CCN(C(=O)COc3ccc(C4=NNC(=O)CC4)cc3)CC2)c(OC)c1OC [Compound of Example 2]	11.4%	12.5%	22.6%	6.4%	12.2%	4.8%	10.1%	34.3%	16.3%	22.8%
COc1ccc(CN2CCN(C(=O)COc3ccc(C4=NNC(=O)CC4)cc3)CC2)cc1 [Compound of Example 3]	13.2%	17%	28%	32%	18.0%	17.4%	12.2%	49.8%	28.9%	29.1%
COc1ccc(N2CCN(C(=O)C(C)Oc3ccc(C4=NNC(=O)CC4)cc3OC)CC2)cc1 (stereo not shown) [Compound of Example 4]	7.5%	24.8%	35.9%	23.8%	9.9%	8.7%	3.6%	19.2%	19.6%	10.0%

From patent EP0252422A2, “Pyridazinone derivatives and salts thereof” (MITSUBISHI KASEI CORPORATION, priority 1986, dated 1988)
